Measurements taken from patent US9656971B2, “COMT inhibitors” (Hoffmann-La Roche Inc., priority 2012, dated 2017).
Where a name gives a salt, the structure may show the parent alone.

biological target: T1, Rec. human COMT (Homo sapiens, UniProt P21964); test: COMT-Fluorescence Assay; format: biochemical; conditions: COMT-fluorescence assay, rec. human COMT 25 nM, 4-Nitrocatechol-Alexa488 200 nM, SAM 500 nM; read-out: IC50
T1 sequence (P21964 1-271): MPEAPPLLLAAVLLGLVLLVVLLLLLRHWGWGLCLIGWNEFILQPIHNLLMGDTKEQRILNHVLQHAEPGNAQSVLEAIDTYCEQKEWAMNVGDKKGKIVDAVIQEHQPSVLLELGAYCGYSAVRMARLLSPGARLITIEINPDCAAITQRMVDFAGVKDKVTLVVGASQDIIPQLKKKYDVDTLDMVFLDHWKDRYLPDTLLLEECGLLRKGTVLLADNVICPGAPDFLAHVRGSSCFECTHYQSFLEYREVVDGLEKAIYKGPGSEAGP
Protocol: This intramolecular interaction is disturbed if the 4-Nitrocatechol is methylated. […] This increase of fluorescence intensity can be followed in a kinetic measurement. The slope in the linear range of the kinetic is calculated. An inhibitor compound decreases the slope.
Signal [rfu/min]=(rfu(end-point)−rfu(startpoint))/incubation_time_#2

SMILES	IC50 [nM]
COCc1nc(NC(=O)C(C)(C)C)ccc1-c1cc(O)c2nc[nH]c(=O)c2c1 [Example 104, N-(5-(8-Hydroxy-4-oxo-3,4-dihydroquinazolin-6-yl)-6-(methoxymethyl)pyridin-2-yl)pivalamide]	10
CC(C)(O)c1ccccc1-c1cc(O)c2nc[nH]c(=O)c2c1 [Example 113, 8-Hydroxy-6-(2-(2-hydroxypropan-2-yl)phenyl)quinazolin-4(3H)-one]	3600
CN(C)c1cccc(-c2cc(O)c3nc[nH]c(=O)c3c2)n1 [Example 183, 6-(6-(Dimethylamino)pyridin-2-yl)-8-hydroxyquinazolin-4(3H)-one]	70
Cc1ccc(-c2ccc(C(F)(F)F)cc2)c(-c2cc(O)c3nc[nH]c(=O)c3c2)c1 [Example 30, 8-Hydroxy-6-(4-methyl-4′-(trifluoromethyl)biphenyl-2-yl)quinazolin-4(3H)-one]	1400
CCOC(=O)c1[nH]c(-c2cc(O)c3nc[nH]c(=O)c3c2)nc1C [Example 80, Ethyl 2-(8-hydroxy-4-oxo-3,4-dihydroquinazolin-6-yl)-4-methyl-1H-imidazole-5-carboxylate]	90
O=C(Nc1c(-c2ccc(F)cc2)cc(O)c2nc[nH]c(=O)c12)c1ccccc1 [Example 254, N-(6-(4-Fluorophenyl)-8-hydroxy-4-oxo-3,4-dihydroquinazolin-5-yl)benzamide]	1400
O=c1[nH]cnc2c(O)cc(-c3ccccc3COCCN3CCN(CC(F)(F)F)CC3)cc12 [Example 121, 8-Hydroxy-6-(2-((2-(4-(2,2,2-trifluoroethyl)piperazin-1-yl)ethoxy)methyl)phenyl)quinazolin-4(3H)-one 2,2,2-trifluoroacetate]	30
COCc1cc(CN2CCN(C(C)C)CC2)ccc1-c1cc(O)c2nc[nH]c(=O)c2c1 [Example 107, 8-Hydroxy-6-(4-((4-isopropylpiperazin-1-yl)methyl)-2-(methoxymethyl)phenyl)quinazolin-4(3H)-one tetrakis(2,2,2-trifluoroacetate)]	20
O=c1[nH]cnc2c(O)cc(-c3ccc(N4CCOCC4)nc3)cc12 [Example 182, 8-Hydroxy-6-(6-morpholinopyridin-3-yl)quinazolin-4(3H)-one]	30
COC(=O)c1nn(C)cc1-c1cc(O)c2nc[nH]c(=O)c2c1 [Example 88, Methyl 4-(8-hydroxy-4-oxo-3,4-dihydroquinazolin-6-yl)-1-methyl-1H-pyrazole-3-carboxylate]	120
O=c1[nH]cnc2c(O)cc(-c3ccc(F)cc3)c(-c3cccc(C(F)(F)F)c3)c12 [Example 53, 6-(4-Fluorophenyl)-8-hydroxy-5-(3-(trifluoromethyl)phenyl)quinazolin-4(3H)-one]	20
Cc1ccc(C(O)c2cc(O)c3nc[nH]c(=O)c3c2)cc1 (stereo not drawn) [Example 65, 8-Hydroxy-6-(hydroxy(p-tolyl)methyl)quinazolin-4(3H)-one]	4830
Cc1cc(C(=O)N2CCCCC2)sc1-c1cc(O)c2nc[nH]c(=O)c2c1 [Example 97, 8-Hydroxy-6-(3-methyl-5-(piperidine-1-carbonyl)thiophen-2-yl)quinazolin-4(3H)-one]	10
COCc1cc(C(=O)N2CCN(C)CC2)ccc1-c1cc(O)c2nc[nH]c(=O)c2c1 [Example 231, 8-Hydroxy-6-[2-methoxymethyl-4-(4-methyl-piperazine-1-carbonyl)-phenyl]-3H-quinazolin-4-one; compound with formic acid]	10
O=c1[nH]cnc2c(O)cc(-c3ccc4ccccc4c3)cc12 [Example 169, 8-Hydroxy-6-(naphthalen-2-yl)quinazolin-4(3H)-one]	40
O=c1[nH]cnc2c(O)ccc(-c3ccc(F)cc3)c12 [Example 151, 5-(4-Fluorophenyl)-8-hydroxyquinazolin-4(3H)-one]	160
O=c1[nH]cnc2c(O)cc(-c3cccnc3OCC(F)(F)F)cc12 [Example 216, 8-Hydroxy-6-(2-(2,2,2-trifluoroethoxy)pyridin-3-yl)quinazolin-4(3H)-one]	40
CC(C)N(C(=O)c1ccccc1-c1cc(O)c2nc[nH]c(=O)c2c1)C(C)C [Example 226, 2-(8-Hydroxy-4-oxo-3,4-dihydroquinazolin-6-yl)-N,N-diisopropylbenzamide]	1030
O=c1[nH]cnc2c(O)cc(-c3ccc(S(F)(F)(F)(F)F)cc3)cc12 [Example 100, 6-(4-Pentafluorosulfanylphenyl)-8-hydroxyquinazolin-4(3H)-one]	50
COCc1cc(COC(=O)N2CCN(C(C)C)CC2)ccc1-c1cc(O)c2nc[nH]c(=O)c2c1 [Example 109, 4-(8-Hydroxy-4-oxo-3,4-dihydroquinazolin-6-yl)-3-(methoxymethyl)benzyl 4-isopropylpiperazine-1-carboxylate bis(2,2,2-trifluoroacetate)]	20
CCOc1ccccc1-c1cc(O)c2nc[nH]c(=O)c2c1 [Example 225, 6-(2-Ethoxyphenyl)-8-hydroxyquinazolin-4(3H)-one]	60
O=C(c1cccc(-c2cc(O)c3nc[nH]c(=O)c3c2)c1)N1CCOCC1 [Example 175, 8-Hydroxy-6-(3-(morpholine-4-carbonyl)phenyl)quinazolin-4(3H)-one]	20
O=c1[nH]cnc2c(O)cc(-c3cccc(CN4CCOCC4)c3)cc12 [Example 39, 8-Hydroxy-6-(3-(morpholinomethyl)phenyl)quinazolin-4(3H)-one 1:1 salt with trifluoroacetate]	20
O=c1[nH]cnc2c(O)cc(-c3cccc4ccccc34)cc12 [Example 170, 8-Hydroxy-6-(naphthalen-1-yl)quinazolin-4(3H)-one]	20
O=c1[nH]cnc2c(O)cc(-c3ccccc3CCCCN3CCCC3)cc12 [Example 248, 8-Hydroxy-6-(2-(4-(pyrrolidin-1-yl)butyl)phenyl)quinazolin-4(3H)-one]	100
O=c1[nH]cnc2c(O)cc(CCCc3ccccc3)cc12 [Example 22]	200
COC(=O)c1csc(-c2cc(O)c3nc[nH]c(=O)c3c2)n1 [Example 84, Methyl 2-(8-hydroxy-4-oxo-3,4-dihydroquinazolin-6-yl)thiazole-4-carboxylate]	110

The remaining lines, values ahead:

IC50 [nM]	SMILES
30	Cc1cc(-c2cc(O)c3nc[nH]c(=O)c3c2)c(C)s1 [Example 165, 6-(2,5-Dimethylthiophen-3-yl)-8-hydroxyquinazolin-4(3H)-one]
20	N#Cc1ccccc1-c1cc(O)c2nc[nH]c(=O)c2c1 [Example 207, 2-(8-Hydroxy-4-oxo-3,4-dihydroquinazolin-6-yl)benzonitrile]
290	O=c1[nH]cnc2c(O)cc(Cl)cc12 [Example 139, 6-Chloro-8-hydroxyquinazolin-4(3H)-one]
4210	O=C(c1cc(O)c2nc[nH]c(=O)c2c1)N1CCOCC1 [Example 3, 8-Hydroxy-6-(morpholine-4-carbonyl)quinazolin-4(3H)-one]
20	CSc1ccccc1-c1cc(O)c2nc[nH]c(=O)c2c1 [Example 223, 8-Hydroxy-6-(2-(methylthio)phenyl)quinazolin-4(3H)-one]
30	Cc1c(-c2cc(O)c3nc[nH]c(=O)c3c2)cnn1C [Example 206, 6-(1,5-Dimethyl-1H-pyrazol-4-yl)-8-hydroxyquinazolin-4(3H)-one]
510	Cn1cnc(-c2cc(O)c3nc[nH]c(=O)c3c2)c1 [Example 75, 8-Hydroxy-6-(1-methyl-1H-imidazol-4-yl)quinazolin-4(3H)-one]
40	COc1ccc(-c2cc(O)c3nc[nH]c(=O)c3c2)cn1 [Example 163, 8-Hydroxy-6-(6-methoxypyridin-3-yl)quinazolin-4(3H)-one]
100	Cc1ccc(/C=C/c2cc(O)c3nc[nH]c(=O)c3c2)cc1 [Example 21, (E)-8-Hydroxy-6-(4-methylstyryl)quinazolin-4(3H)-one]
140	O=c1[nH]cnc2c(O)cc(Br)cc12 [Example 126, 6-Bromo-8-hydroxyquinazolin-4(3H)-one]
90	Cc1ccc(C(=O)c2cc(O)c3nc[nH]c(=O)c3c2)s1 [Example 94, 8-Hydroxy-6-(5-methylthiophene-2-carbonyl)quinazolin-4(3H)-one]

same assay, conditions: IC50, COMT-fluorescence assay, rec. human COMT 25 nM, 4-Nitrocatechol-Alexa488 200 nM, SAM 500 nM

SMILES	IC50 [nM]
CCc1cc(O)c2nc[nH]c(=O)c2c1 [Example 10, 6-Ethyl-8-hydroxyquinazolin-4(3H)-one 2,2,2-trifluoroacetate]	1090
O=c1[nH]cnc2c(O)cc(-c3cccc(N4CCOCC4)c3)cc12 [Example 146, 8-Hydroxy-6-(3-morpholinophenyl)quinazolin-4(3H)-one]	20
CC(=O)c1ccccc1-c1cc(O)c2nc[nH]c(=O)c2c1 [Example 112, 6-(2-Acetylphenyl)-8-hydroxyquinazolin-4(3H)-one]	170
O=c1[nH]cnc2c(O)cc(-c3ccc4c(c3)CNCC4)cc12 [Example 174, 8-Hydroxy-6-(1,2,3,4-tetrahydroisoquinolin-7-yl)quinazolin-4(3H)-one]	70

Other lines, results leading:

IC50 [nM]	SMILES
20	O=c1[nH]cnc2c(O)cc(-c3ccc(F)cc3F)cc12 [Example 133, 6-(2,4-Difluorophenyl)-8-hydroxyquinazolin-4(3H)-one]
20	O=c1[nH]cnc2c(O)cc(-c3ccccc3Cl)cc12 [Example 132, 6-(2-Chlorophenyl)-8-hydroxyquinazolin-4(3H)-one]
30	Cc1ccc(F)cc1-c1cc(O)c2nc[nH]c(=O)c2c1 [Example 213, 6-(5-Fluoro-2-methylphenyl)-8-hydroxyquinazolin-4(3H)-one]
